Earlier results on two compounds are cited in patent publication US20250352504A1, “LEVOCARNITINE AND TRIMETAZIDINE BILAYER TABLET AND PREPARATION METHOD THEREOF” (Changzhou High-tech Industrial Development Zone 3D …, priority 2024, published 2025).

Counter-ions that a name gives are not always drawn. Like-named read-outs stand apart in the source and are kept apart here.

For data set [1] the following is noted: crystalline powder.

For `C[N+](C)(C)C[C@H](O)CC(=O)[O-]` [Levocarnitine, (3R)-3-hydroxy-4-(trimethylammonio) butanoate], the hygroscopicity result in data set [1] was “strong hygroscopicity”. In addition, the solubility entry was “almost insoluble” (acetone); “readily soluble” (ethanol); “almost insoluble” (ether); “easily soluble” (formic acid); “readily soluble” (water).

As for `COc1ccc(CN2CCNCC2)c(OC)c1OC` [Trimetazidine dihydrochloride, 1-(2,3,4-Trimethoxybenzyl) piperazine dihydrochloride], the solubility entry is reported as “highly soluble” (0.1 mol/L hydrochloric acid solution); “highly soluble” (0.1 mol/L sodium hydroxide solution); “easily soluble” (acetic acid); “slightly soluble” (ethanol); “almost insoluble” (ether); “soluble” (methanol). For the same compound, where the note is “water”, the solubility result is on record as “highly soluble”.
